Molecules are shown by their SMILES. pIC50: −log10 of the molar value. Bridge positions count the residues as written; N and C are the ends. Square brackets hold non-standard residues; d marks the D form. Peptide text beside a SMILES is read from it. * marks the point of attachment. Phe(3-CF3) = N[C@@H](Cc1cccc(C(F)(F)F)c1)C(=O)O; Ala(morpholin-4-yl) = N[C@@H](CN1CCOCC1)C(=O)O; Phe(4-COOH) = N[C@@H](Cc1ccc(C(=O)O)cc1)C(=O)O; Bip = N[C@@H](Cc1ccc(-c2ccccc2)cc1)C(=O)O; NH(CH2)14COOH = O=C(O)CCCCCCCCCCCCCCN*; NH(CH2)12COOH = O=C(O)CCCCCCCCCCCCN*; Val(3-OH) = CC(C)(O)[C@H](N)C(=O)O; Cha = N[C@@H](CC1CCCCC1)C(=O)O; PEG4 = NCCOCCOCCOCCOCCC(=O)O; Carboxymethyl = O=C(O)C*; Nle = CCCC[C@H](N)C(=O)O; Orn = NCCC[C@H](N)C(=O)O; Dab = NCC[C@H](N)C(=O)O; AEEA = NCCOCCOCC(=O)O

T1 sequence (Q15116 25-288): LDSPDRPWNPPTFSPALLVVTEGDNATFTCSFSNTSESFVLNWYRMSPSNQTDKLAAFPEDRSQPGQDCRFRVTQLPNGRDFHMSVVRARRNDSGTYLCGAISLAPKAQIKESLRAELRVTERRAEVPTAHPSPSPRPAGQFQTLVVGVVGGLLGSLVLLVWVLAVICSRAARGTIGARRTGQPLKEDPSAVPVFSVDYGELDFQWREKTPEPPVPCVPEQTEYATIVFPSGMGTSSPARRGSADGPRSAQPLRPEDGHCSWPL

This assay addresses T1, PD-1/PD-L1 interaction (PE-labeled human PD-L1-Ig binding to Jurkat cell line over-expressing human PD-1) (Homo sapiens, UniProt Q15116).
T1 construct: expressed in transfected cells; host or cells: Jurkat
In words: Jurkat-PD-1 Cell Binding High-Content Screening Assay (CBA). Type of assay: cell-based. Particulars: Jurkat cell line over-expressing human PD-1; PE-labeled PD-L1-Ig 20 nM final; read-out: Jurkat hPD1-PDL1 IC50. A digest of the protocol:
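Jurkat-hPD-1 cells, DMEM/10% FCS; cpd 2 h 37° C; PE-PD-L1-Ig 20 nM final, 1 h; 4% PFA fix + Hoechst 33342, 3× dPBS wash; high-content imaging read-out.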
One may read the pIC50 as the negative decadic logarithm of the IC50, by convention in mol/L. On to `CCCC[C@@H]1NC(=O)CSC[C@@H](C(=O)N[C@@H](CCN)C(=O)NCCOCCOCC(=O)NCCOCCOCC(=O)NCCCCCCCCCCCCC(=O)O)NC(=O)[C@H](CO)NC(=O)[C@H](C(C)(C)O)NC(=O)[C@H](CC2CCCCC2)NC(=O)[C@H](CCN)NC(=O)[C@@H](CC(C)C)NC(=O)[C@H](CCCN)NC(=O)[C@H](Cc2ccc(C(=O)O)cc2)NC(=O)[C@H](Cc2ccc(-c3ccccc3)cc2)NC(=O)[C@H](Cc2ccc(C(=O)O)cc2)NC(=O)[C@H](Cc2cccc(C(F)(F)F)c2)NC(=O)[C@H](CC(=O)O)NC(=O)[C@H](Cc2ccc(OCC(=O)O)cc2)NC1=O` [Compound 2909] ({CH2CO}-[Nle]Y(Carboxymethyl)D[Phe(3-CF3)][Phe(4-COOH)][Bip][Phe(4-COOH)][Orn][dL][Dab][Cha][Val(3-OH)]SC[Dab][AEEA][AEEA]-{NH(CH2)12COOH}; thioether N-14), for which the pIC50 was 7.74. As to `CCCC[C@@H]1NC(=O)CSC[C@@H](C(=O)N[C@@H](CCN)C(=O)NCCOCCOCCOCCOCCC(=O)NCCCCCCCCCCCCC(=O)O)NC(=O)[C@H](CO)NC(=O)[C@H](C(C)(C)O)NC(=O)[C@H](CC2CCCCC2)NC(=O)[C@H](CCN)NC(=O)[C@@H](CC(C)C)NC(=O)[C@H](CCCN)NC(=O)[C@H](Cc2ccc(C(=O)O)cc2)NC(=O)[C@H](Cc2ccc(-c3ccccc3)cc2)NC(=O)[C@H](Cc2ccc(C(=O)O)cc2)NC(=O)[C@H](Cc2cccc(C(F)(F)F)c2)NC(=O)[C@H](CC(=O)O)NC(=O)[C@H](Cc2ccc(OCC(=O)O)cc2)NC1=O` [Compound 2911] ({CH2CO}-[Nle]Y(Carboxymethyl)D[Phe(3-CF3)][Phe(4-COOH)][Bip][Phe(4-COOH)][Orn][dL][Dab][Cha][Val(3-OH)]SC[Dab][PEG4]-{NH(CH2)12COOH}; thioether N-14), the pIC50 was 7.46. With `CCCC[C@@H]1NC(=O)CSC[C@@H](C(=O)N[C@@H](CCN)C(=O)NCCOCCOCCOCCOCCC(=O)NCCCCCCCCCCCCCCC(=O)O)NC(=O)[C@H](CO)NC(=O)[C@H](C(C)(C)O)NC(=O)[C@H](CC2CCCCC2)NC(=O)[C@H](CCN)NC(=O)[C@@H](CC(C)C)NC(=O)[C@H](CCCN)NC(=O)[C@H](Cc2ccc(C(=O)O)cc2)NC(=O)[C@H](Cc2ccc(-c3ccccc3)cc2)NC(=O)[C@H](Cc2ccc(C(=O)O)cc2)NC(=O)[C@H](Cc2cccc(C(F)(F)F)c2)NC(=O)[C@H](CC(=O)O)NC(=O)[C@H](Cc2ccc(OCC(=O)O)cc2)NC1=O` [Compound 2912] ({CH2CO}-[Nle]Y(Carboxymethyl)D[Phe(3-CF3)][Phe(4-COOH)][Bip][Phe(4-COOH)][Orn][dL][Dab][Cha][Val(3-OH)]SC[Dab][PEG4]-{NH(CH2)14COOH}; thioether N-14), the pIC50 is 6.62. `CCCC[C@@H]1NC(=O)CSC[C@@H](C(=O)N[C@@H](CCN)C(=O)NCCCCCCCCCCCCCCC(=O)O)NC(=O)[C@H](CO)NC(=O)[C@H](C(C)(C)O)NC(=O)[C@H](CC2CCCCC2)NC(=O)[C@H](CCN)NC(=O)[C@@H](CC(C)C)NC(=O)[C@H](CCCN)NC(=O)[C@H](Cc2ccc(C(=O)O)cc2)NC(=O)[C@H](Cc2ccc(-c3ccccc3)cc2)NC(=O)[C@H](Cc2ccc(C(=O)O)cc2)NC(=O)[C@H](Cc2cccc(C(F)(F)F)c2)NC(=O)[C@H](CC(=O)O)NC(=O)[C@H](Cc2ccc(OCC(=O)O)cc2)NC1=O` [Compound 2913] ({CH2CO}-[Nle]Y(Carboxymethyl)D[Phe(3-CF3)][Phe(4-COOH)][Bip][Phe(4-COOH)][Orn][dL][Dab][Cha][Val(3-OH)]SC[Dab]-{NH(CH2)14COOH}; thioether N-14): the pIC50 is 6.20.

As for `CC(C)C[C@H]1NC(=O)[C@H](CCCN)NC(=O)[C@H](Cc2ccc(C(=O)O)cc2)NC(=O)[C@H](Cc2ccc(-c3ccccc3)cc2)NC(=O)[C@H](Cc2ccc(C(=O)O)cc2)NC(=O)[C@H](Cc2cccc(C(F)(F)F)c2)NC(=O)[C@H](CC(=O)O)NC(=O)[C@H](Cc2ccc(OCC(=O)O)cc2)NC(=O)[C@H](CN2CCOCC2)NC(=O)CSC[C@@H](C(=O)N[C@@H](CCN)C(=O)NCCOCCOCC(=O)NCCOCCOCC(=O)NCCCCCCCCCCCCC(=O)O)NC(=O)[C@H](CO)NC(=O)[C@H](C(C)(C)O)NC(=O)[C@H](CC2CCCCC2)NC(=O)[C@H](CCN)NC1=O` [Compound 2914] ({CH2CO}-[Ala(morpholin-4-yl)]Y(Carboxymethyl)D[Phe(3-CF3)][Phe(4-COOH)][Bip][Phe(4-COOH)][Orn][dL][Dab][Cha][Val(3-OH)]SC[Dab][AEEA][AEEA]-{NH(CH2)12COOH}; thioether N-14), the pIC50 is 7.62. In the case of `CC(C)C[C@H]1NC(=O)[C@H](CCCN)NC(=O)[C@H](Cc2ccc(C(=O)O)cc2)NC(=O)[C@H](Cc2ccc(-c3ccccc3)cc2)NC(=O)[C@H](Cc2ccc(C(=O)O)cc2)NC(=O)[C@H](Cc2cccc(C(F)(F)F)c2)NC(=O)[C@H](CC(=O)O)NC(=O)[C@H](Cc2ccc(OCC(=O)O)cc2)NC(=O)[C@H](CN2CCOCC2)NC(=O)CSC[C@@H](C(=O)N[C@@H](CCN)C(=O)NCCOCCOCC(=O)NCCOCCOCC(=O)NCCCCCCCCCCCCCCC(=O)O)NC(=O)[C@H](CO)NC(=O)[C@H](C(C)(C)O)NC(=O)[C@H](CC2CCCCC2)NC(=O)[C@H](CCN)NC1=O` [Compound 2915] ({CH2CO}-[Ala(morpholin-4-yl)]Y(Carboxymethyl)D[Phe(3-CF3)][Phe(4-COOH)][Bip][Phe(4-COOH)][Orn][dL][Dab][Cha][Val(3-OH)]SC[Dab][AEEA][AEEA]-{NH(CH2)14COOH}; thioether N-14), the pIC50 is 6.75.

Regarding `CC(C)C[C@H]1NC(=O)[C@H](CCCN)NC(=O)[C@H](Cc2ccc(C(=O)O)cc2)NC(=O)[C@H](Cc2ccc(-c3ccccc3)cc2)NC(=O)[C@H](Cc2ccc(C(=O)O)cc2)NC(=O)[C@H](Cc2cccc(C(F)(F)F)c2)NC(=O)[C@H](CC(=O)O)NC(=O)[C@H](Cc2ccc(OCC(=O)O)cc2)NC(=O)[C@H](CN2CCOCC2)NC(=O)CSC[C@@H](C(=O)N[C@@H](CCN)C(=O)NCCOCCOCCOCCOCCC(=O)NCCCCCCCCCCCCC(=O)O)NC(=O)[C@H](CO)NC(=O)[C@H](C(C)(C)O)NC(=O)[C@H](CC2CCCCC2)NC(=O)[C@H](CCN)NC1=O` [Compound 2916] ({CH2CO}-[Ala(morpholin-4-yl)]Y(Carboxymethyl)D[Phe(3-CF3)][Phe(4-COOH)][Bip][Phe(4-COOH)][Orn][dL][Dab][Cha][Val(3-OH)]SC[Dab][PEG4]-{NH(CH2)12COOH}; thioether N-14), the pIC50 was 7.60. `CC(C)C[C@H]1NC(=O)[C@H](CCCN)NC(=O)[C@H](Cc2ccc(C(=O)O)cc2)NC(=O)[C@H](Cc2ccc(-c3ccccc3)cc2)NC(=O)[C@H](Cc2ccc(C(=O)O)cc2)NC(=O)[C@H](Cc2cccc(C(F)(F)F)c2)NC(=O)[C@H](CC(=O)O)NC(=O)[C@H](Cc2ccc(OCC(=O)O)cc2)NC(=O)[C@H](CN2CCOCC2)NC(=O)CSC[C@@H](C(=O)N[C@@H](CCN)C(=O)NCCOCCOCCOCCOCCC(=O)NCCCCCCCCCCCCCCC(=O)O)NC(=O)[C@H](CO)NC(=O)[C@H](C(C)(C)O)NC(=O)[C@H](CC2CCCCC2)NC(=O)[C@H](CCN)NC1=O` [Compound 2917] ({CH2CO}-[Ala(morpholin-4-yl)]Y(Carboxymethyl)D[Phe(3-CF3)][Phe(4-COOH)][Bip][Phe(4-COOH)][Orn][dL][Dab][Cha][Val(3-OH)]SC[Dab][PEG4]-{NH(CH2)14COOH}; thioether N-14): the pIC50 is 6.87. As for `CC(C)C[C@H]1NC(=O)[C@H](CCCN)NC(=O)[C@H](Cc2ccc(C(=O)O)cc2)NC(=O)[C@H](Cc2ccc(-c3ccccc3)cc2)NC(=O)[C@H](Cc2ccc(C(=O)O)cc2)NC(=O)[C@H](Cc2cccc(C(F)(F)F)c2)NC(=O)[C@H](CC(=O)O)NC(=O)[C@H](Cc2ccc(OCC(=O)O)cc2)NC(=O)[C@H](CN2CCOCC2)NC(=O)CSC[C@@H](C(=O)N[C@@H](CCN)C(=O)NCCCCCCCCCCCCC(=O)O)NC(=O)[C@H](CO)NC(=O)[C@H](C(C)(C)O)NC(=O)[C@H](CC2CCCCC2)NC(=O)[C@H](CCN)NC1=O` [Compound 2918] ({CH2CO}-[Ala(morpholin-4-yl)]Y(Carboxymethyl)D[Phe(3-CF3)][Phe(4-COOH)][Bip][Phe(4-COOH)][Orn][dL][Dab][Cha][Val(3-OH)]SC[Dab]-{NH(CH2)12COOH}; thioether N-14), the pIC50 is 7.65. Regarding `CC(C)C[C@H]1NC(=O)[C@H](CCCN)NC(=O)[C@H](Cc2ccc(C(=O)O)cc2)NC(=O)[C@H](Cc2ccc(-c3ccccc3)cc2)NC(=O)[C@H](Cc2ccc(C(=O)O)cc2)NC(=O)[C@H](Cc2cccc(C(F)(F)F)c2)NC(=O)[C@H](CC(=O)O)NC(=O)[C@H](Cc2ccc(OCC(=O)O)cc2)NC(=O)[C@H](CN2CCOCC2)NC(=O)CSC[C@@H](C(=O)N[C@@H](CCN)C(=O)NCCCCCCCCCCCCCCC(=O)O)NC(=O)[C@H](CO)NC(=O)[C@H](C(C)(C)O)NC(=O)[C@H](CC2CCCCC2)NC(=O)[C@H](CCN)NC1=O` [Compound 2919] ({CH2CO}-[Ala(morpholin-4-yl)]Y(Carboxymethyl)D[Phe(3-CF3)][Phe(4-COOH)][Bip][Phe(4-COOH)][Orn][dL][Dab][Cha][Val(3-OH)]SC[Dab]-{NH(CH2)14COOH}; thioether N-14), the pIC50 is 6.43.

Regarding `CC(C)C[C@H]1NC(=O)[C@H](CCCN)NC(=O)[C@H](Cc2ccc(C(=O)O)cc2)NC(=O)[C@H](Cc2ccc(-c3ccccc3)cc2)NC(=O)[C@H](Cc2ccc(C(=O)O)cc2)NC(=O)[C@H](Cc2cccc(C(F)(F)F)c2)NC(=O)[C@H](CC(=O)O)NC(=O)[C@H](Cc2ccc(OCC(=O)O)cc2)NC(=O)[C@H](CN2CCOCC2)NC(=O)CSC[C@@H](C(=O)N[C@@H](CCN)C(=O)NCCOCCOCC(=O)NCCOCCOCC(=O)NCCCCCCCCCCCCC(=O)O)NC(=O)[C@H](CC(=O)O)NC(=O)[C@H](C(C)(C)O)NC(=O)[C@H](CC2CCCCC2)NC(=O)[C@H](CCN)NC1=O` [Compound 2920] ({CH2CO}-[Ala(morpholin-4-yl)]Y(Carboxymethyl)D[Phe(3-CF3)][Phe(4-COOH)][Bip][Phe(4-COOH)][Orn][dL][Dab][Cha][Val(3-OH)]DC[Dab][AEEA][AEEA]-{NH(CH2)12COOH}; thioether N-14), the pIC50 was 7.59.

For the origin of these results see patent US20260022142A1, “MACROCYCLIC IMMUNOMODULATORS” (Bristol-Myers Squibb Company, priority 2022, published 2026).
